Assay results taken from patent US6436945B2, “Substituted O6-benzyl-8-aza-guanines” (The United States of America as represented by the of …, priority 1994, dated 2002).
Changes are numbered by the printed parent chain.

How the values were obtained:
[1] = test system: MCF-71 breast cancer cells; assay: Killing of MCF-71 breast cancer cells by BCNU combined with AGT inactivators (colony formation)
Description: (§1) Cells were treated for 2 h with AGT inactivator prior to exposure to BCNU.

mutant alkyltransferase = assay: Inactivation of mutant (resistant) alkyltransferase, overall statements; format: biochemical, human; conditions: intracellular concentration, extrapolated from Table 6
alkyltransferase P140A = molecular target: T1, alkyltransferase P140A (Homo sapiens, UniProt P16455, P140A); assay: Inhibition of mutant alkyltransferase proteins, P140A; format: biochemical
T1 construct: made in house
T1 sequence (P16455 1-207 P140A): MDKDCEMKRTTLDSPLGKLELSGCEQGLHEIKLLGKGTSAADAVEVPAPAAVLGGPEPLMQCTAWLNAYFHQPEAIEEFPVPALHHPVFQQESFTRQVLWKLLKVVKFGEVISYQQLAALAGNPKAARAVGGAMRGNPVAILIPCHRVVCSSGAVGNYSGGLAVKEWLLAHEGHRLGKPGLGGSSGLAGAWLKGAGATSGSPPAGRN

[2] = molecular target: T2, O^6-alkylguanine-DNA alkyltransferase (AGT) (Homo sapiens, UniProt P16455); parameters: endogenous in cells; host or cells: HT29 human colon tumor cells; conditions: text b35, comparison value of Table 1; cited from earlier work
T2 sequence (P16455 1-207): T1 sequence (P16455 1-207 P140A) with A140P

[3] = test system: DU-145 prostate cancer cells; assay: Killing of DU-145 prostate cancer cells by BCNU combined with AGT inactivators (colony formation)
Description: as §1

HT-29 colon cancer cells = assay: Killing of HT-29 colon cancer cells by BCNU combined with AGT inactivators (colony formation); conditions: for Colony Formation per 1000 cells: HT-29
Description: as §1

[4] = molecular target: T3, alkyltransferase P138A/P140A (Homo sapiens, UniProt P16455, P138A/P140A); assay: Inhibition of mutant alkyltransferase proteins, P138A/P140A; format: biochemical
T3 construct: made in house
T3 sequence (P16455 1-207 P138A/P140A): T1 sequence (P16455 1-207 P140A) with P138A

alkyltransferase G156A = molecular target: T4, alkyltransferase G156A (Homo sapiens, UniProt P16455, G156A); assay: Inhibition of mutant alkyltransferase proteins, G156A; format: biochemical
T4 construct: made in house
T4 sequence (P16455 1-207 G156A): T1 sequence (P16455 1-207 P140A) with A140P, G156A

Control alkyltransferase = molecular target: T5, Control alkyltransferase (Homo sapiens, UniProt P16455); assay: Inhibition of alkyltransferase proteins, control protein; format: biochemical; conditions: concentration to inactivate 50% of the activity in 30 minutes, read-out: ED50 value
T5 sequence (P16455 1-207): T1 sequence (P16455 1-207 P140A) with A140P

[5] = molecular target: T2, O^6-alkylguanine-DNA alkyltransferase (AGT); assay: AGT inactivation in HT29 cell-free extract
Description: (§2) The data represent the dose of compound required to produce 50% inactivation in cell-free extracts upon incubation for 30 min or in cells upon incubation for 4 hr.

[6] = molecular target: T2, O^6-alkylguanine-DNA alkyltransferase (AGT); assay: AGT inactivation in intact HT29 cells
Description: as §2

Structure (SMILES): Nc1nc(OCc2ccccc2)c2nc[nH]c2n1 [O^6-benzylguanine, reference compound]
- Colony Formation per 1000 cells ([1]; inactivator 10 μM, BCNU 40 μM): 4 ± 2 per 1000 cells
- Colony Formation per 1000 cells ([1]; inactivator 10 μM, BCNU none): 455 ± 63 per 1000 cells
- Colony Formation per 1000 cells ([1]; inactivator […], BCNU 40 μM): 12 ± 6 per 1000 cells
- concentration needed to be effective at inactivating resistant alkyltransferase (mutant alkyltransferase): greater than 200 μM
- increase in resistance to inactivation (alkyltransferase P140A; P140A versus control protein): 20 fold
- ED50 value for inactivation of AGT in HT29 cell extracts [2]: 200000 nM
- Colony Formation per 1000 cells ([3]; inactivator 1 μM, BCNU 40 μM): 299 ± 18 per 1000 cells
- Colony Formation per 1000 cells ([3]; inactivator 10 μM, BCNU 40 μM): 28 ± 5 per 1000 cells
- Colony Formation per 1000 cells ([3]; inactivator 10 μM, BCNU none): 462 ± 68 per 1000 cells
- Colony Formation per 1000 cells (HT-29 colon cancer cells; inactivator 1 μM, BCNU 40 μM): 277 ± 25 per 1000 cells
- Colony Formation per 1000 cells (HT-29 colon cancer cells; inactivator 10 μM, BCNU 40 μM): 13 ± 6 per 1000 cells
- Colony Formation per 1000 cells (HT-29 colon cancer cells; inactivator 10 μM, BCNU none): 431 ± 33 per 1000 cells
- Colony Formation per 1000 cells (HT-29 colon cancer cells; inactivator […], BCNU 40 μM): 38 ± 15 per 1000 cells
- increase in resistance to inactivation ([4]; P138A/P140A versus control protein): 88 fold
- increase in resistance to inactivation (alkyltransferase G156A; G156A versus control protein): 240 fold

Structure (SMILES): Nc1nc(N)c(N=O)c(OCc2ccccc2)n1 [Compound 3d, 2,4-diamino-6-benzyloxy-5-nitrosopyrimidine]
- Colony Formation per 1000 cells ([1]; inactivator […], BCNU 40 μM): 2 ± 1 per 1000 cells
- concentration needed to be effective at inactivating resistant alkyltransferase (mutant alkyltransferase): greater than 5 μM
- EC50 (alkyltransferase P140A; P140A, concentration to inactivate 50% of the activity in 30 minutes, read-out: ED50 value): 100 nM
- Colony Formation per 1000 cells ([3]; inactivator 1 μM, BCNU 40 μM): 25 ± 4 per 1000 cells
- EC50 (Control alkyltransferase): 50 nM
- enhancement of BCNU cytotoxicity, in words (HT-29 colon cancer cells; BCNU 40 μM, statement covers HT29, DU-145 and MCF-71 cells (Tables 3-5)): similarly effective at a 4-fold lower dose
- Colony Formation per 1000 cells (HT-29 colon cancer cells; inactivator 1 μM, BCNU 40 μM): 19 ± 4 per 1000 cells
- Colony Formation per 1000 cells (HT-29 colon cancer cells; inactivator […], BCNU 40 μM): <1 per 1000 cells
- EC50 ([4]; P138A/P140A, concentration to inactivate 50% of the activity in 30 minutes, read-out: ED50 value): 300 nM
- EC50 (alkyltransferase G156A; G156A, concentration to inactivate 50% of the activity in 30 minutes, read-out: ED50 value): 1000 nM
- EC50 [5]: 60 nM
- AGT inactivating activity in HT29 cell-free extracts, in words ([5]; comparison): the most active AGT inactivators tested to date
- EC50 [6]: 20 nM
